Laboratory results published in patent publication US20130272978A1, “DIHYDROXYACETONE MONOETHERS” (MERCK PATENT GMBH, priority 2010, published 2013).

Experiments:
[1] = Tanning experiment (liquid skin model); details: for L* (Lab values after 24 hours) / a* (Lab values after 24 hours) / b* (Lab values after 24 hours): 1 mmol substance + 1 mmol DL-lysine in ethylene glycol/water, pH=7, after 24 h, UV-VIS spectrometer; for Coloration/shade compared with DHA: from Lab values after 24 h; for Kinetics of tanning reaction compared with DHA: documented via photos; for Speed of tanning reaction relative to DHA: optical assessment
Procedure: Tanning Experiment (Liquid Skin Model)
1 mmol of the self-tanner substance to be tested are dissolved in 94 ml of ethylene glycol and 6 ml of water (potassium hydrogenphthalate-buffered to pH=7) with 146 mg of DL-lysine (1 mmol) and stirred for 24 hrs. (=liquid skin model). The kinetics are documented via photos. After 24 h, the colour values (L*a*b* system) of the solution are measured by UV-VIS spectrometer (Varian Cary-50) in order to be able to assess the effect on the skin tones.

[2] = Solubility in cosmetic oils (Finsolv TN); format: physicochemical

Row | Solubility in cosmetic oil [2] | SMILES | L* (Lab values after 24 hours) [1] | a* (Lab values after 24 hours) [1] | b* (Lab values after 24 hours) [1] | Coloration/shade compared with DHA [1] | Kinetics of tanning reaction compared with DHA [1] | Speed of tanning reaction relative to DHA [1]
1 | 0.97% | O=C(CO)COCC1CCCCC1 [MCHMDE, monocyclohexylmethyl-DHA ether] | 45.3 | 18.2 | 50.5 | strong shift towards a more yellow shade |  | 
2 |  | CCCCCCCOCC(=O)CO [MHDE, 1-heptyloxy-3-hydroxypropan-2-one] | 0.1 | 0.4 | 0.2 | darker coloration | faster tanning reaction than DHA | doubling of the speed
3 | 2.25% | CCCCC(CC)COCC(=O)CO (centres unmarked) [MEHDE, mono-2-ethylhexyl-DHA ether] | 86.5 | 4.7 | 24.3 | paler coloration |  | 
4 | 0.24% | O=C(CO)COCc1ccccc1 [MBDE, 1-benzyloxy-3-hydroxypropan-2-one] | 42.6 | 32.0 | 70.0 | strong shift towards a redder shade | faster tanning reaction than DHA | doubling of the speed
